The test system of series [1] is U2OS. In words: Upregulation of p21 protein expression in human U2OS cells at 2.5 uM measured after 24 hrs by Western blot analysis. The format is functional, cell-based. Background: A western blot detects proteins with antibodies after separation by electrophoresis.
Series [2] relates to HCT-116. In words: cells. As to conditions: Homo sapiens, HCT-116, 96 h.
For series [3], the target named is Cellular tumor antigen p53 (Homo sapiens) (UniProt P04637). In words: Activation of p53 pathway in human HCT-116 cells incubated for 24 hrs by Western blot analysis. The format is cell-based. As to conditions: filed as activator, dose 0.078125-2.5 µM, DDE = dose-dependent effect.
Series [4] has as its system U2OS. In words: Upregulation of p53 protein expression in human U2OS cells at 2.5 uM measured after 24 hrs by Western blot analysis. The class given is functional, cell-based.
For series [5], the system named is RKO. In words: Induction of apoptosis in human RKO cells assessed as late apoptotic cells at 25 uM measured after 48 hrs by Annexin V-FITC/PI staining based flow cytometry analysis (reference value: 0.82 %). The class given is functional.
Series [6] deals with NCI-H460. In words: Upregulation of p53 protein expression in human NCI-H460 cells at 2.5 uM measured after 24 hrs by Western blot analysis. The class given is functional, cell-based.
Series [7] has as its system MCF7. In words: Upregulation of MDM2 protein expression in human MCF7 cells at 2.5 uM measured after 24 hrs by Western blot analysis. The format is functional, cell-based.
Series [8] deals with NCI-H460. In words: cells. As to conditions: Homo sapiens, NCI-H460, 96 h.
Series [9] concerns RKO. In words: Upregulation of p53 expression in human RKO cells incubated for 24 hrs by Western blot analysis. The format is functional, cell-based. As to conditions: dose 0.3125-2.5 µM, DDE = dose-dependent effect.
Series [10] relates to NCI-H460. In words: Upregulation of p21 protein expression in human NCI-H460 cells at 2.5 uM measured after 24 hrs by Western blot analysis. The class given is functional, cell-based.
Series [11] can be described thus: Cytotoxicity against HEK293 cells assessed as cell growth inhibition incubated for 4 days by CCK-8 assay. The class given is toxicity, cell-based. Conditions: human. Background: Formazan colour is commonly taken as a measure of viable cells.
Series [12] deals with RKO. In words: Upregulation of p21 gene expression in human RKO cells incubated for 24 hrs by qPCR analysis. The format is functional, cell-based. As to conditions: dose 0.3125-2.5 µM, DDE = dose-dependent effect. (In general: Real-time PCR tracks product formation cycle by cycle.)
Series [13] concerns RKO. In words: Induction of apoptosis in human RKO cells assessed as early apoptotic cells at 12.5 uM measured after 48 hrs by Annexin V-FITC/PI staining based flow cytometry analysis (reference value: 3.56 %). The format is functional.
The species named for series [14] is Homo sapiens. In words: Potency index, ratio of RG7388 Ki to test compound Ki for displacement of 5-FAM labeled PDI peptide from MDM4 C17S mutant (14 to 111 residues) (unknown origin) expressed in Escherichia coli BL21 (DE3) assessed as inhibition constant incubated for 1.5 hrs by fluorescence polarization competition assay.
Series [15] concerns NCI-H460. In words: Upregulation of MDM2 protein expression in human NCI-H460 cells at 2.5 uM measured after 24 hrs by Western blot analysis. The format is functional, cell-based.
Series [16] relates to RKO. In words: Upregulation of MDM2 expression in human RKO cells incubated for 24 hrs by Western blot analysis. Conditions: dose 0.3125-2.5 µM, DDE = dose-dependent effect. The class given is functional, cell-based.
Series [17] has as its target Cyclin-dependent kinase inhibitor 1 (Homo sapiens) (UniProt P38936). In words: Activation of p21 in human HCT-116 cells incubated for 24 hrs by Western blot analysis. The class given is cell-based. Conditions: filed as activator, dose 0.078125-2.5 µM, DDE = dose-dependent effect.
For series [18], the system named is RKO. In words: Antitumor activity against human RKO cells xenografted in BALB/c mouse assessed as tumor growth inhibition at 50 mg/kg, po qd administered via gavage for 21 consecutive days and measured on day 21 relative to control. The format is functional. As to conditions: 504 h, time 21 day, read-out: TGI.

The IC50 is the concentration needed to halve the response being measured.

Active and inactive are the calls of the source. The rule behind the calls is not given here.

Cyclin-dependent kinase inhibitor 1 (Homo sapiens), sequence (P38936 whole entry): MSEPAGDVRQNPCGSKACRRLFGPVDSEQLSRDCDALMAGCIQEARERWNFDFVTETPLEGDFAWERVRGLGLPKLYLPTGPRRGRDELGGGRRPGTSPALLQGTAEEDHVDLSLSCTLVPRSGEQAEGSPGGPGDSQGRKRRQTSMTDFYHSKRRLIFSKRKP
Cellular tumor antigen p53 (Homo sapiens), sequence (P04637 whole entry, looked up): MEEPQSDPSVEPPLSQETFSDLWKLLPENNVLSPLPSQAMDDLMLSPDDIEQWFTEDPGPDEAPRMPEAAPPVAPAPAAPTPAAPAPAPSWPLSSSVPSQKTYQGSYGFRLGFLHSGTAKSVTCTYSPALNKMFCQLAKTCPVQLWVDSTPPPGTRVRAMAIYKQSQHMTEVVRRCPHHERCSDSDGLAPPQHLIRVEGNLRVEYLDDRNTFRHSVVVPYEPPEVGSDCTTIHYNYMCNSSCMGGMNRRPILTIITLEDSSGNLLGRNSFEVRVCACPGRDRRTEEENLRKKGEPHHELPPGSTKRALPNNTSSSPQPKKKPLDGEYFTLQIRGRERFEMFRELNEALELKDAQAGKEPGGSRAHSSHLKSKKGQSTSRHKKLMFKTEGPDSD

As to `COc1cc(C(=O)O)ccc1NC(=O)[C@@H]1N[C@@H](CC(C)(C)C)[C@](CNCc2ccncc2)(c2ccc(Cl)cc2F)[C@H]1c1cccc(Cl)c1F`, the outcome in [1], in series [4], in [6], in series [7], in series [10] and in [15] was Active. The IC50 is 50.7 nM in [2] and 460 nM in [8]. In addition, the Activity result in series [3] was “Dde”; in series [5], 57.01%; in series [9] it was “Dde”; in series [12], “Dde”; in series [13], 9.54%; in [16], “Dde”. In addition, the Activity entry in series [17] is “Dde”. For the same compound, the IC50 at 4 days in series [11] was determined as 6250 nM. In series [14], the Ratio Ki turned out to be 6. For the same compound, in [18], the inhibition in vivo at 50 mg/kg is 5%.
